Measured values reported in PubChem BioAssay (NCI).
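All cell lines were grown in 96-well plates and treated with compound for 48 hours. The concentration for 50% growth inhibition is given as GI50. TGI: total growth inhibition.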

What was measured:
Test in all cases: NCI-60 cell line screen, 48 h; in the data active means GI50 below about 0.43 µM; inactive means the rest
[1] = tested on: UACC-257 melanoma
[2] = tested on: UACC-62 melanoma
[3] = tested on: SK-OV-3 ovarian
[4] = tested on: SN12C renal
[5] = tested on: OVCAR-8 ovarian
[6] = tested on: NCI-H460 lung
[7] = tested on: COLO 205 colon
[8] = tested on: CAKI-1 renal
[9] = tested on: SK-MEL-2 melanoma
[10] = tested on: K-562 leukemia
[11] = tested on: OVCAR-3 ovarian
[12] = tested on: LOX IMVI melanoma
[13] = tested on: SF-295 CNS
[14] = tested on: SK-MEL-28 melanoma
[15] = tested on: MCF7 breast
[16] = tested on: OVCAR-5 ovarian
[17] = tested on: MALME-3M melanoma
[18] = tested on: SNB-19 CNS
[19] = tested on: DU-145 prostate
[20] = tested on: MOLT-4 leukemia
[21] = tested on: OVCAR-4 ovarian
[22] = tested on: SK-MEL-5 melanoma
[23] = tested on: SF-539 CNS
[24] = tested on: HOP-62 NSCLC
[25] = tested on: HT29 colon
[26] = tested on: SF-268 CNS
[27] = tested on: CCRF-CEM leukemia
[28] = tested on: NCI-H522 lung
[29] = tested on: U251 CNS
[30] = tested on: MDA-MB-435
[31] = tested on: RXF 393 renal
[32] = tested on: SR leukemia
[33] = tested on: RPMI-8226 leukemia
[34] = tested on: MDA-MB-231 breast
[35] = tested on: 786-0 renal
[36] = tested on: HCT-116 colon
[37] = tested on: TK-10 renal
[38] = tested on: ACHN renal
[39] = tested on: SNB-75 CNS
[40] = tested on: HCT-15 colon
[41] = tested on: HL-60(TB) leukemia
[42] = tested on: EKVX NSCLC
[43] = tested on: HCC-2998 colon
[44] = tested on: HOP-92 NSCLC
[45] = tested on: UO-31 renal
[46] = tested on: HS 578T breast
[47] = tested on: A549 NSCLC
[48] = tested on: NCI/ADR-RES ovarian
[49] = tested on: KM12 colon
[50] = tested on: NCI-H226 lung
[51] = tested on: T-47D breast
[52] = tested on: IGROV1 ovarian
[53] = tested on: M14 melanoma
[54] = tested on: A498 renal
[55] = tested on: NCI-H23 lung
[56] = tested on: SW-620 colon
[57] = tested on: BT-549 breast
[58] = tested on: PC-3 prostate

Nc1ccn([C@@H]2S[C@H](CO)[C@@H](O)[C@@H]2F)c(=O)n1
> 100 µM: TGI [1] | TGI [3] | TGI [4] | TGI [5] | TGI [6] | TGI [7] | TGI [8] | TGI [9] | TGI [10] | TGI [12] | TGI [14] | TGI [15] | TGI [16] | TGI [17] | TGI [18] | TGI [19] | TGI [20] | TGI [21] | TGI [22] | TGI [25] | TGI [26] | TGI [27] | TGI [28] | TGI [29] | TGI [32] | TGI [33] | TGI [34] | TGI [36] | TGI [37] | TGI [39] | TGI [40] | TGI [42] | TGI [43] | TGI [44] | TGI [46] | TGI [47] | TGI [48] | TGI [49] | TGI [51] | TGI [52] | TGI [56] | TGI [57]
active: GI50 [2] 372 nM | GI50 [3] 352 nM | GI50 [4] 40.5 nM | GI50 [5] 26 nM | GI50 [6] 138 nM | GI50 [7] 407 nM | GI50 [8] 41.2 nM | GI50 [10] 230 nM | GI50 [12] 224 nM | GI50 [15] 54.5 nM | GI50 [18] 58.1 nM | GI50 [19] 42.4 nM | GI50 [20] 30.4 nM | GI50 [22] 178 nM | GI50 [23] 317 nM | GI50 [24] 52.6 nM | GI50 [25] 178 nM | GI50 [26] 260 nM | GI50 [27] < 10 nM | GI50 [29] 367 nM | GI50 [30] 180 nM | GI50 [31] 289 nM | GI50 [32] 57.5 nM | GI50 [35] 109 nM | GI50 [36] 39.3 nM | GI50 [38] 27.1 nM | GI50 [40] 413 nM | GI50 [41] 79.2 nM | GI50 [44] 278 nM | GI50 [45] 35.6 nM | GI50 [47] 161 nM | GI50 [48] 32.5 nM | GI50 [53] 61.6 nM | GI50 [54] 70.9 nM | GI50 [55] 58.6 nM | GI50 [56] 252 nM
> 100000 nM: TGI [11] | TGI [30]
inactive: GI50 [1] 1.34 µM | GI50 [9] > 100000 nM | GI50 [11] > 51100 nM | GI50 [13] 452 nM | GI50 [14] > 100000 nM | GI50 [16] 509 nM | GI50 [17] 1520 nM | GI50 [21] > 100 µM | GI50 [28] 8.83 µM | GI50 [33] 2650 nM | GI50 [34] > 100000 nM | GI50 [37] > 100000 nM | GI50 [39] 2730 nM | GI50 [42] 648 nM | GI50 [43] 3030 nM | GI50 [46] > 100000 nM | GI50 [49] 8.65 µM | GI50 [50] 485 nM | GI50 [51] 1350 nM | GI50 [52] 740 nM | GI50 [57] 1740 nM
> 22.4 µM: TGI [31]
> 48.4 µM: TGI [50]
> 38.2 µM: TGI [2]
842 nM: TGI [53]
> 74.3 µM: TGI [24]
> 49 µM: TGI [55]
> 24.7 µM: TGI [13]

Nc1c(C(=O)Nc2ccccn2)sc2nc3c(cc12)CCCCCC3
38.5 µM: TGI [10]
7.14 µM: TGI [36]
9.33 µM: TGI [8]
509 nM: TGI [30]
3050 nM: TGI [53]
13.9 µM: TGI [52]
13.8 µM: TGI [17] | TGI [18]
3.07 µM: TGI [23]
2470 nM: TGI [11]
9.83 µM: TGI [9]
19.6 µM: TGI [14]
18.5 µM: TGI [50]
18 µM: TGI [57]
22.7 µM: TGI [56]
21.6 µM: TGI [39]
1430 nM: TGI [41]
9.07 µM: TGI [29]
33.1 µM: TGI [43]
13.6 µM: TGI [7]
> 50 µM: TGI [20] | TGI [27] | TGI [28] | TGI [32] | TGI [49] | TGI [55]
34.6 µM: TGI [51]
37.3 µM: TGI [4]
30 µM: TGI [33]
22.6 µM: TGI [26]
23.3 µM: TGI [42]
15.2 µM: TGI [3] | TGI [34]
12.2 µM: TGI [58]
11.1 µM: TGI [40]
5.77 µM: TGI [19]
5.43 µM: TGI [13]
10.3 µM: TGI [2] | TGI [37]
22.2 µM: TGI [45]
12.4 µM: TGI [46]
6.24 µM: TGI [35]
41.4 µM: TGI [48]
10.9 µM: TGI [38]
17.9 µM: TGI [16]
10.2 µM: TGI [15]
11 µM: TGI [24]
inactive: GI50 [1] 7.88 µM | GI50 [3] 1910 nM | GI50 [4] 3170 nM | GI50 [5] 2210 nM | GI50 [6] 1120 nM | GI50 [7] 1490 nM | GI50 [8] 1560 nM | GI50 [9] 965 nM | GI50 [11] 626 nM | GI50 [12] 2970 nM | GI50 [14] 1630 nM | GI50 [16] 2670 nM | GI50 [17] 1260 nM | GI50 [18] 1220 nM | GI50 [19] 1180 nM | GI50 [21] 4.21 µM | GI50 [22] 906 nM | GI50 [23] 580 nM | GI50 [24] 1550 nM | GI50 [26] 2480 nM | GI50 [28] 1.79 µM | GI50 [29] 970 nM | GI50 [31] 903 nM | GI50 [58] 1540 nM | GI50 [33] 915 nM | GI50 [34] 2500 nM | GI50 [35] 776 nM | GI50 [37] 2870 nM | GI50 [38] 2410 nM | GI50 [39] 649 nM | GI50 [42] 4100 nM | GI50 [43] 1610 nM | GI50 [44] 1860 nM | GI50 [45] 4560 nM | GI50 [46] 935 nM | GI50 [47] 1650 nM | GI50 [48] 570 nM | GI50 [49] 0.511 µM | GI50 [50] 3150 nM | GI50 [51] 2090 nM | GI50 [52] 1950 nM | GI50 [55] 2250 nM | GI50 [57] 524 nM
15.8 µM: TGI [5] | TGI [21]
4.07 µM: TGI [31]
41.9 µM: TGI [12]
30.7 µM: TGI [1]
7.22 µM: TGI [22]
active: GI50 [2] 376 nM | GI50 [10] 204 nM | GI50 [13] 426 nM | GI50 [15] 179 nM | GI50 [20] 392 nM | GI50 [25] 360 nM | GI50 [27] 355 nM | GI50 [30] 143 nM | GI50 [32] 197 nM | GI50 [36] 225 nM | GI50 [40] 254 nM | GI50 [41] 140 nM | GI50 [53] 295 nM | GI50 [56] 389 nM
5.67 µM: TGI [25]
6.62 µM: TGI [6]
11.4 µM: TGI [44]
9.17 µM: TGI [47]
